# Data from patent US7501430B2 (ArQule, Inc., priority 2006, dated 2009).
# Biological target: T1, mutant B-RAF (Homo sapiens, UniProt P15056, V600E)
# T1 construct: purchased Upstate (Charlottesville, Va.)
# Assay: RAF biochemical assay (MEK-1 phosphorylation, anti-phospho MEK1/2 detection)
# Settings: @ 10 uM
# Procedure: Materials: The RAF kinases and the anti-phospho MEK1/2 antibody were from Upstate (Charlottesville, Va.). The RAF substrate used was full length N-terminal GST-MEK-1, which was expressed in E. coli and purified in-house by HPLC. All proteins were aliquoted and stored at −80° C.
# Compounds were serially diluted in assay buffer containing 1% DMSO and 20 μL of test compound at a concentration 3-fold more than the final concentration, and were added to a polypropylene V-well reaction plate. Vehicle control wells received buffer only with DMSO at equivalent concentrations to the test wells. […] These reaction plates were incubated at room temperature for 30 minutes. Capture of MEK-1 was initiated by transferring 50 μl of the reaction mixture to a Nunc Maxisorp™ microplate that is designed for non-specific protein capture. After 30 minute capture of MEK-1 at room temperature, this plate was washed with TBST (6×200 μL/well) to fully terminate the reaction. The plate was then blocked for 1 hour by the addition of 100 μl/well of Superblock™ in phosphate buffered saline (PBS) blocking reagent. Plate was again washed with TBST (6 times with 200 μL/well), followed by the addition of 70 μL/well of Upstate anti-phospho MEK 1/2 diluted 1:1000 in Pierce Superblock (PBS). After a 60 minute incubation, this plate was washed with TBST (6 times with 200 μL/well), and 70 μL of the secondary antibody (Pierce Alkaline Phosphatase tagged goat anti-rabbit) prepared at 1:4000 in Superblock, were added. After a 45 minute incubation at room temperature, the wells of the microplate were washed with TBST (6 times with 200 μL/well), and thereafter 100 μl/well of Attophos™ fluorescent alkaline phosphatase substrate was added according to the manufacturer's instructions (JBL Scientific).
# T1 sequence (P15056 whole entry V600E): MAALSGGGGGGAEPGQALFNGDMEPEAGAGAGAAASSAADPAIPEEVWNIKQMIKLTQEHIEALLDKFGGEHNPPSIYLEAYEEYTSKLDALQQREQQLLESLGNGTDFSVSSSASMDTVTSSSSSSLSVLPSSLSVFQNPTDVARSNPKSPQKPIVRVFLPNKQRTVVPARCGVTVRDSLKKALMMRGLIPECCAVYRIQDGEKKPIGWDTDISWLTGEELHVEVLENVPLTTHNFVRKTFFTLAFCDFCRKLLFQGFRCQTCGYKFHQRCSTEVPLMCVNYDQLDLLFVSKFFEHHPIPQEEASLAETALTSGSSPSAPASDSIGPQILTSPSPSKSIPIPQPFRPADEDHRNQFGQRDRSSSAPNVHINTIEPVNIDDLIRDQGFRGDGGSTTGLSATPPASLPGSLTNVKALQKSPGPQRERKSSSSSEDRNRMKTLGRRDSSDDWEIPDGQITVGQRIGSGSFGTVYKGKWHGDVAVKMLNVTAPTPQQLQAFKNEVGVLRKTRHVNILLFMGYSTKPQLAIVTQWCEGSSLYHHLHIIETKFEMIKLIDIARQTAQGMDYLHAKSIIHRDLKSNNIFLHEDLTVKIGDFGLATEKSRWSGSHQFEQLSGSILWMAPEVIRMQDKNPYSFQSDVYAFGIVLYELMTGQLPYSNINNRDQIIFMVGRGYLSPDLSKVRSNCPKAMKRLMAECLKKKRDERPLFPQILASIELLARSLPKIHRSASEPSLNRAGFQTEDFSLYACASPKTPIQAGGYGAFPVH
row,SMILES,Mutant B-RAF % inhibition
1,"O=S(=O)(c1cccc(C(F)(F)F)c1)N1CCC[C@@H](Nc2nccc(-c3c(-c4ccc(F)cc4)nc4occn34)n2)C1 [Example 46, 4-[6-(4-fluorophenyl)imi-dazo[2,1-b][1,3]oxazol-5-yl]-N-((3R)-1-{[3-(trifluoro-methyl)phenyl]sulfonyl}piper-idin-3-yl)pyrimidin-2-amine]",19 @ 10 uM %

# Same assay, conditions: @ 10 uM; read-out: Mutant B-RAF % inhibition
row,inhibition at 10 µM,SMILES
1,40%,"COc1cc(-c2nc3sccn3c2-c2ccnc(N[C@@H]3CCCN(S(=O)(=O)c4ccc(Cl)cc4)C3)n2)ccc1Cl [Example 100, 4-[6-(4-chloro-3-methoxyphenyl)imidazo[2,1-b][1,3]thiazol-5-yl]-N-{(3R)-1-[(4-chlorophenyl)sulfonyl]piper-idin-3-yl}pyrimidin-2-amine]"
2,38%,"O=C(C1CCCCC1)N1CCC(Nc2nccc(-c3c(-c4ccc(F)cc4)nc4occn34)n2)CC1 [Example 164, N-[1-(cyclohexylcarbonyl)piperidin-4-yl]-4-[6-(4-fluorophenyl)imidazo[2,1-b][1,3]oxazol-5-yl]pyrimidin-2-amine]"
3,50%,"Cc1nc(C)c(S(=O)(=O)N2CCC(Nc3nccc(-c4c(-c5ccc(F)cc5)nc5occn45)n3)CC2)s1 [Example 230, N-{1-[(2,4-dimethyl-1,3-thiazol-5-yl)sulfonyl]piperidin-4-yl)-4-[6-(4-fluorophenyl)imidazo[2,1-b][1,3]oxazol-5-yl]pyrimidin-2-amine]"
4,61%,"N#Cc1cccc(-c2nc3sccn3c2-c2ccnc(N[C@@H]3CCNC3)n2)c1 [Example 284, 3-(5-{2-[(3R)-pyrrolidin-3-ylamino]pyrimidin-4-yl}imidazo[2,1-b][1,3]thiazol-6-yl)benzonitrile]"
5,67%,"Cc1cn2c(-c3ccnc(N[C@@H]4CCCNC4)n3)c(-c3ccc(F)cc3)nc2s1 [Example 79, 4-[6-(4-fluorophenyl)-2-methylimidazo[2,1-b][1,3]thiazol-5-yl]-N-((3R)-piper-idin-3-yl]pyrimidin-2-amine]"
6,11%,"NCC(=O)N1CCC[C@@H](Nc2nccc(-c3c(-c4ccc(F)cc4)nc4occn34)n2)C1 [Example 35, N-[(3R)-1-(aminoacetyl)piper-idin-3-yl]-4-[6-(4-fluorophenyl)imidazo[2,1-b][1,3]oxazol-5-yl]pyrimidin-2-amine]"
7,38%,"COc1cccc(OC)c1C(=O)N1CCC(Nc2nccc(-c3c(-c4ccc(F)cc4)nc4occn34)n2)CC1 [Example 210, N-[1-(2,6-dimethoxybenzoyl)piperidin-4-yl]-4-[6-(4-fluorophenyl)imidazo[2,1-b][1,3]oxazol-5-yl]pyrimidin-2-amine]"
8,53%,"O=C(NCc1ccccc1)N1CCC[C@@H](Nc2nccc(-c3c(-c4ccc(F)c(F)c4)nc4sccn34)n2)C1 [Example 87, (3R)-N-benzyl-3-({4-[6-(3,4-difluorophenyl)imidazo[2,1-b][1,3]thiazol-5-yl]pyrimidin-2-yl}amino)piperidine-1-carboxamide]"
9,63%,"O=C(NCc1ccccc1)N1CCC(Nc2nccc(-c3c(-c4ccc(F)c(F)c4)nc4sccn34)n2)CC1 [Example 251, N-benzyl-4-({4-[6-(3,4-difluorophenyl)imidazo[2,1-b][1,3]thiazol-5-yl]pyrimidin-2-yl}amino)piperidine-1-carboxamide]"

# Same assay, conditions: read-out: Mutant B-RAF % inhibition
row,SMILES,inhibition at 10 µM
1,"O=S(=O)(c1ccc(OC(F)(F)F)cc1)N1CCC[C@@H](Nc2nccc(-c3c(-c4ccc(F)cc4)nc4occn34)n2)C1 [Example 49, 4-[6-(4-fluorophenyl)imi-dazo[2,1-b][1,3]oxazol-5-yl]-N-((3R)-1-{(4-(trifluoro-methoxy)phenyl]sulfonyl}piperidin-3-yl)pyrimidin-2-amine]",32%

# Same assay, conditions: read-out: Mutant B-RAF IC50
row,IC50,SMILES
1,4730 nM,"O=C(Nc1ccc(F)cc1)N1CCC(Nc2nccc(-c3c(-c4ccc(F)cc4)nc4occn34)n2)CC1 [Example 174, N-(4-fluorophenyl)-4-({4-[6-(4-fluorophenyl)imidazo[2,1-b][1,3]oxazol-5-yl]pyrimidin-2-yl}amino)piperidine-1-carboxamide]"
2,> 10000 nM,"COc1cccc(-c2nc3occn3c2-c2ccnc(N[C@@H]3CCCNC3)n2)c1 [Example 115, 4-[6-(3-methoxyphenyl)imidazo[2,1-b][1,3]oxazol-5-yl]-N-[(3R)-piperidin-3-yl]pyrimidin-2-amine]"
3,3610 nM,"O=C(NCC1CCCCC1)N1CCC(Nc2nccc(-c3c(-c4ccc(F)cc4)nc4occn34)n2)CC1 [Example 183, N-(cyclohexylmethyl)-4-({4-[6-(4-fluorophenyl)imidazo[2,1-b][1,3]oxazol-5-yl]pyrimidin-2-yl}amino)piperidine-1-carboxamide]"
4,444 nM,"Nc1ccccc1-c1nc2sccn2c1-c1ccnc(N[C@@H]2CCCN(S(=O)(=O)c3ccc(Cl)cc3)C2)n1 [Example 132, 4-[6-(2-aminophenyl)imidazo[2,1-b][1,3]thiazol-5-yl]-N-{(3R)-1-[(4-chlorophenyl)sulfonyl]piper-idin-3-yl}pyrimidin-2-amine]"
5,1280 nM,"O=C(NCCc1ccc(F)cc1)N1CCC(Nc2nccc(-c3c(-c4ccc(F)cc4)nc4occn34)n2)CC1 [Example 184, N-[2-(4-fluorophenyl)ethyl]-4-({4-[6-(4-fluorophenyl)imidazo[2,1-b][1,3]oxazol-5-yl]pyrimidin-2-yl}amino)piperidine-1-carboxamide]"
6,876 nM,"O=Cc1ccc(-c2nc3sccn3c2-c2ccnc(N[C@@H]3CCCN(S(=O)(=O)c4ccc(Cl)cc4)C3)n2)cc1 [Example 385, 4-{5-[2-({(3R)-1-[(4-chlorophenyl)sulfonyl]piperidin-3-yl}amino)pyrimidin-4-yl]imidazo[2,1-b][1,3]thiazol-6-yl}benzaldehyde]"
7,> 3000 nM,"CC(C)S(=O)(=O)N1CCC[C@@H](Nc2nccc(-c3c(-c4cccc(O)c4)nc4sccn34)n2)C1 [Example 368, 3-[5-(2-{[(3R)-1-(isopropylsulfonyl)piperidin-3-yl]amino}pyrimidin-4-yl)imidazo[2,1-b][1,3]thiazol-6-yl]phenol]"
8,2260 nM,"O=S(=O)(c1ccc(Cl)cc1)N1CCC[C@@H](Nc2nccc(-c3c(-c4ccc(CO)cc4)nc4sccn34)n2)C1 [Example 378, (4-{5-[2-({(3R)-1-[(4-chlorophenyl)sulfonyl]piperidin-3-yl}amino)pyrimidin-4-yl]imidazo[2,1-b][1,3]thiazol-6-yl}phenyl)methanol]"
9,44 nM,"Fc1ccc(-c2nc3sccn3c2-c2ccnc(N[C@@H]3CCNC3)n2)cc1 [Example 277, 4-[6-(4-fluorophenyl)imidazo[2,1-b][1,3]thiazol-5-yl]-N-[(3R)-pyrrolidin-3-yl]pyrimidin-2-amine]"
10,722 nM,"O=[N+]([O-])c1ccccc1-c1nc2sccn2c1-c1ccnc(NC2CCN(S(=O)(=O)c3ccc(Cl)cc3)CC2)n1 [Example 274, N-{1-((4-chlorophenyl)sulfonyl]piperidin-4-yl}-4-[6-(2-nitrophenyl)imidazo[2,1-b][1,3]thiazol-5-yl]pyrimidin-2-amine]"
11,> 3000 nM,"Cc1cn2c(-c3ccnc(N[C@@H]4CCCN(C(=O)Nc5ccc(N(C)C)cc5)C4)n3)c(-c3ccc(F)cc3)nc2s1 [Example 94, (3R)-N-[4-(dimethyl-amino)phenyl]-3-({4-[6-(4-fluorophenyl)-2-methylimidazo[2,1-b][1,3]thiazol-5-yl]pyrimidin-2-yl}amino)piperidine-1-carboxamide]"
12,29 nM,"O=S(=O)(c1ccc(F)cc1)N1CCC(Nc2nccc(-c3c(-c4cccc(O)c4)nc4sccn34)n2)CC1 [Example 266, 3-{5-[2-({1-[(4-fluorophenyl)sulfonyl]piperidin-4-yl}amino)pyrimidin-4-yl]imidazo[2,1-b][1,3]thiazol-6-yl}phenol]"
13,66 nM,"CN(C)c1ccc(NC(=O)N2CCC(Nc3nccc(-c4c(-c5ccc(F)cc5)nc5occn45)n3)CC2)cc1 [Example 175, N-[4-(dimethylamino)phenyl]-4-({4-[6-(4-fluorophenyl)imidazo[2,1-b][1,3]oxazol-5-yl]pyrimidin-2-yl}amino)piperidine-1-carboxamide]"
14,27 nM,"O=S(=O)(c1cc(C(F)(F)F)cc(C(F)(F)F)c1)N1CCC(Nc2nccc(-c3c(-c4ccc(F)cc4)nc4occn34)n2)CC1 [Example 207, N-(1-{[3,5-bis(trifluoro-methyl)phenyl]sulfonyl}piperidin-4-yl)-4-[6-(4-fluorophenyl)imidazo[2,1-b][1,3]oxazol-5-yl]pyrimidin-2-amine]"
15,422 nM,"Oc1cccc(-c2nc3sccn3c2-c2ccnc(NC3CCN(CC(O)COc4ccc(Cl)cc4)CC3)n2)c1 (stereo not drawn) [Example 318, 3-{5-[2-({1-[3-(4-chlorophenoxy)-2-hydroxypropyl]piperidin-4-yl}amino)pyrimidin-4-yl]imidazo[2,1-b][1,3]thiazol-6-yl}phenol]"
16,33 nM,"O=S(=O)(c1ccc(Cl)cc1)N1CCC[C@@H](Nc2nccc(-c3c(-c4ccccc4O)nc4sccn34)n2)C1 [Example 107, 2-{5-[2-({(3R)-1-[(4-chlorophenyl)sulfonyl]piperidin-3-yl}amino)pyrimidin-4-yl]imidazo[2,1-b][1,3]thiazol-6-yl}phenol]"
